The nature of series [1]: (§1) Oral bioavailability in rat at 6 mg/kg. Type of series: ADME, organism-based. Conditions: in vivo.
Series [2] can be described thus: Half life in rat at 6 mg/kg, po. Conditions: in vivo. It is filed as ADME, organism-based. Details: dose 6 mg/kg, route oral.
A short description of series [3]: (§2) AUC (0 to t) in rat at 6 mg/kg, po. Type of series: ADME, organism-based, Plasma. Details: dose 6 mg/kg, route oral. To be noted: plasma.
A short description of series [4]: (§3) Clearance in rat at 3 mg/kg, iv. Details: dose 3 mg/kg, route intravenous. To be noted: in vivo. It is filed as ADME, organism-based.
The target in series [5] is T1, CYP1A2 (Homo sapiens, UniProt P05177).
T1 sequence (P05177 whole entry): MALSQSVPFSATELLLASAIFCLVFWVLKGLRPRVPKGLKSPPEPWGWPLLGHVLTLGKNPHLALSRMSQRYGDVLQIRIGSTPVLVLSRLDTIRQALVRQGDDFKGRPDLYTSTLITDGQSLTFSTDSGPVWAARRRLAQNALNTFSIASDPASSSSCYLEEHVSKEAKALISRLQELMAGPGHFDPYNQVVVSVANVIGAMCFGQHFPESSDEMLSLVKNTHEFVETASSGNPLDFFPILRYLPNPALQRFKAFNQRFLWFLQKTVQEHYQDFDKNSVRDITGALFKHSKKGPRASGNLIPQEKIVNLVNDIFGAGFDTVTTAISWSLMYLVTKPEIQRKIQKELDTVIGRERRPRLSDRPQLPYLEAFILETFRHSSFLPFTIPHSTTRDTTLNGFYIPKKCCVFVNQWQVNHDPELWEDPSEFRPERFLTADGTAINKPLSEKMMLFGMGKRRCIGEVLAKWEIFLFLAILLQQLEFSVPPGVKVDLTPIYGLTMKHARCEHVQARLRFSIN
In words: Inhibition of CYP1A2 in human microsomes using phenacetin as substrate at 10 uM after 5 mins. It is filed as ADME, Microsome. Conditions: probe phenacetin.

Series [6] concerns the target CYP2D6 (Homo sapiens, UniProt P10635). Put plainly: Inhibition of CYP2D6 in human microsomes using dextrpmethorphan as substrate at 10 uM after 5 mins. To be noted: probe dextromethorphan (printed: dextrpmethorphan). It is filed as ADME, Microsome.
Series [7] deals with CYP3A4 (Homo sapiens, UniProt P08684). Put plainly: Inhibition of CYP3A4 in human microsomes using midazolam as substrate at 10 uM after 5 mins. To be noted: probe midazolam. It is filed as ADME, Microsome.
Chain of CYP3A4 (P08684 whole entry): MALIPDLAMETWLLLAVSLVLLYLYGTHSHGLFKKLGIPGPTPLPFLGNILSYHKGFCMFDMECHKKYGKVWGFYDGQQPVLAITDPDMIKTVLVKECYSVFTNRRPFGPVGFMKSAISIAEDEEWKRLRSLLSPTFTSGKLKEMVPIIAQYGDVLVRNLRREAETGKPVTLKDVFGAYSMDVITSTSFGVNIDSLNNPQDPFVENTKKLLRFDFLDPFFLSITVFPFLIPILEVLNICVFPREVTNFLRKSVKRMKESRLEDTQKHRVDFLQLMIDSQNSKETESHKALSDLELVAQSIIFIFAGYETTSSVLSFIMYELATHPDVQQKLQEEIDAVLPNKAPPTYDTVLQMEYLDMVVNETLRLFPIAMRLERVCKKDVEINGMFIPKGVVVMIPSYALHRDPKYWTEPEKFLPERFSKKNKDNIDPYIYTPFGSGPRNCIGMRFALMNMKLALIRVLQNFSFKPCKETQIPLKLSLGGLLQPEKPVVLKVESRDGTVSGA
The nature of series [8]: Intrinsic clearance in human liver microsomes at 1 uM preincubated for 5 mins measured per mg protein by LC/MS/MS analysis. To be noted: read-out: CLH. Type of series: ADME, Microsome. (In general: Liver microsomes are a subcellular fraction often used to study metabolism.)
Series [9] deals with 11-beta-hydroxysteroid dehydrogenase 1 (Homo sapiens, UniProt P28845). Put plainly: Inhibition of human 11-beta HSD1 transfected in HEK293 cell microsomes assessed as decrease in [3H]cortisol generation using [3H]cortisone as substrate measured after 60 mins by scintillation proximity assay. Details: species or system Microsome. For orientation: In a scintillation proximity assay essentially only radioactivity close to the scintillant gives light.
Chain of 11-beta-hydroxysteroid dehydrogenase 1 (P28845 whole entry): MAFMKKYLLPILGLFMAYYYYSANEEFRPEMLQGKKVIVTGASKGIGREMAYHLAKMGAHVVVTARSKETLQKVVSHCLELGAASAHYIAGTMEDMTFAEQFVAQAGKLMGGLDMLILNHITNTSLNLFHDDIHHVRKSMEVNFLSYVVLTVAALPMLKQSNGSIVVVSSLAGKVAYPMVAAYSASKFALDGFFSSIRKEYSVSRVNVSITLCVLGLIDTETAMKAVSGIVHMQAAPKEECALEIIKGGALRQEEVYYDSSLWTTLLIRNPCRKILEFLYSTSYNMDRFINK

Series [10] relates to Rattus norvegicus. The description is as §1. To be noted: in vivo. It is filed as ADME, organism-based.
Series [11] relates to Rattus norvegicus. The description is as §2. It is filed as ADME, organism-based, Plasma. Details: dose 6 mg/kg, route oral. To be noted: in vivo.
The subject of series [12] is Rattus norvegicus. The series is described as §3. Type of series: ADME, organism-based. Details: dose 3 mg/kg, route intravenous. To be noted: in vivo.

Molecules are shown by their SMILES.

Here are results for 29 compounds from ChEMBL document CHEMBL2331386, “Design, synthesis and SAR of piperidyl-oxadiazoles as 11β-hydroxysteroid dehydrogenase 1 inhibitors” (Eur J Med Chem, 2013).

Chain of CYP2D6 (P10635 whole entry): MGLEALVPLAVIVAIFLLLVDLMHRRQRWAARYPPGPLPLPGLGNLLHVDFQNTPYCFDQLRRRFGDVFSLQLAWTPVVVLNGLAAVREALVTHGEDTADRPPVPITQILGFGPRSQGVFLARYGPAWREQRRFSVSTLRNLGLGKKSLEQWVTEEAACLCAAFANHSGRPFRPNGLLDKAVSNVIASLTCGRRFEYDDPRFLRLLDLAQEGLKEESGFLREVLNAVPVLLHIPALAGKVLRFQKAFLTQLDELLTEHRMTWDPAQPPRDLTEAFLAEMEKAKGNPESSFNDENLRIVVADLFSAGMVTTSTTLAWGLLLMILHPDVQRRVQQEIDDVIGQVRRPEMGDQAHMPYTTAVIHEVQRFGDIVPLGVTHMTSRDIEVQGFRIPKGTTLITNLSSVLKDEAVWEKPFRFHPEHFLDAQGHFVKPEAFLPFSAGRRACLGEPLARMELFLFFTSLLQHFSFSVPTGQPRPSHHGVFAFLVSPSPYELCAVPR

For orientation: bioavailability means the share of a dose that reaches the circulation, judged against a reference dose that is usually intravenous. The low end stands for little systemic uptake, the high end for much systemic uptake. Broadly, the half-life is the time needed for the level to fall by half in the phase considered. A higher half-life goes with slow decline. Broadly, the AUC(0-t) is the area under the concentration-time curve up to a stated or last time point. Read a low AUC(0-t) as low exposure. The clearance is the volume of plasma or blood freed of the substance per unit of time. A lower clearance goes with a low capacity for elimination. For orientation: inhibition means the relative decrease from the control value, in per cent. Low values mean little suppression, high ones strong suppression. As a reminder, the IC50 is the concentration that inhibits the measured activity by half. On to `Cc1c(Cl)cccc1S(=O)(=O)N1CCC[C@H](C(=O)NC2CCCCC2)C1`, for which the bioavailability in [1] turned out to be 8%. For the same compound, the half-life in [2] was 0.4 h. Also, in [3], the exposure AUC(0-t) was 0.188 µM·h. Moreover, in series [4], the clearance was 130 mL/min/kg. For the same compound, the values for the inhibition at 5 min, 10 µM in series [5], in series [6] and in [7] were 16%, 34% and 73%, respectively. Moreover, the microsomal CLint at 1 µM in series [8] was determined as 209 µL/min/mg. Also, in [9], the 50% inhibitory concentration (IC50) is 0.8 nM. Turning to `Cc1c(Cl)cccc1C(=O)N1CCC[C@H](c2nc(-c3ccc(Br)cc3)no2)C1`, in series [9], the 50% inhibitory concentration (IC50) is greater than 1000 nM.

Consider `Cc1c(Cl)cccc1C(=O)N1CCC[C@H](c2nc(-c3cccc(Br)c3)no2)C1`, for which the IC50 in series [9] was found to be 310 nM. The same measure, in the same setting: the value for `Cc1c(Cl)cccc1C(=O)N1CCC[C@H](c2nc(-c3ccccc3Br)no2)C1` was 825 nM. Still for that read-out and setting: with `Cc1c(Cl)cccc1C(=O)N1CCC[C@H](c2nc(-c3ccccc3Cl)no2)C1` the figure was 277 nM; with `Cc1c(Cl)cccc1C(=O)N1CCC[C@H](c2nc(-c3cccs3)no2)C1`, greater than 1000 nM. Same read-out and setting: with `Cc1c(Cl)cccc1C(=O)N1CCC[C@H](c2nc(-c3ccc(F)cc3)no2)C1` the figure was 956 nM; with `Cc1c(Cl)cccc1C(=O)N1CCC[C@H](c2nc(C3CCCCC3)no2)C1`, 621 nM. As to `Cc1c(Cl)cccc1C(=O)N1CCC[C@H](c2nc(C34CC5CC(CC(C5)C3)C4)no2)C1`, the IC50 in series [9] is greater than 1000 nM. Regarding `CC1(C)C(C(=O)N2CCC[C@H](c3nc(-c4ccccc4)no3)C2)C1(C)C`, the IC50 in series [9] came to 793 nM. Still for that read-out and setting: with `O=C(C1CC1)N1CCC[C@H](c2nc(-c3ccccc3)no2)C1` the figure was 92 nM; with `O=C(C1CCC1)N1CCC[C@H](c2nc(-c3ccccc3)no2)C1`, 326 nM. In series [10], `O=C(C1CCCCC1)N1CCC[C@H](c2nc(-c3ccccc3)no2)C1` returned an F of 36%. The compound further gave a half-life in series [2] of 1.3 h. This compound also gave an AUCt in series [11] of 25.3 µM·min. In series [12], this compound yielded a CL of 24 mL/min/kg. Besides, the inhibition at 5 min, 10 µM was 16% in series [5], 12% in [6] and 7.7% in series [7]. Further, the microsomal CLint at 1 µM in series [8] was found to be 44 µL/min/mg. Moreover, in series [9], the IC50 was 71 nM. As for `O=C(C1CCCCCC1)N1CCC[C@H](c2nc(-c3ccccc3)no2)C1`, the IC50 in series [9] was 1480 nM. Take `Cn1ccc2c(C(=O)N3CCC[C@H](c4nc(-c5ccccc5)no4)C3)cccc21`: in series [9], the IC50 came out at 141 nM. Same read-out and setting: with `Cn1cccc1C(=O)N1CCC[C@H](c2nc(-c3ccccc3)no2)C1` the figure was 715 nM; with `O=C(c1ccco1)N1CCC[C@H](c2nc(-c3ccccc3)no2)C1`, 659 nM.

On to `Cc1c(Br)cccc1C(=O)N1CCC[C@H](c2nc(-c3ccccc3)no2)C1`, for which the F in series [10] worked out at 25%. This compound also had a half-life in series [2] of 2.1 h. In addition, in series [11], the AUCt worked out at 34.1 µM·min. In series [12], this compound gave a CL of 16 mL/min/kg. Besides, the inhibition at 5 min, 10 µM was found to be 0% in series [5], 0% in series [6] and 22% in [7]. Besides, the microsomal CLint at 1 µM in series [8] amounted to 63 µL/min/mg. Besides, in series [9], the IC50 was determined as 3.3 nM. Regarding `Cc1cccc(C(=O)N2CCC[C@H](c3nc(-c4ccccc4)no3)C2)c1Cl`, in [9], the IC50 is 28 nM. The same measure, in the same setting: the value for `O=C(c1ccc(Cl)cc1)N1CCC[C@H](c2nc(-c3ccccc3)no2)C1` was 277 nM; that for `O=C(c1cccc(Cl)c1)N1CCC[C@H](c2nc(-c3ccccc3)no2)C1` was 741 nM. The same measure, in the same setting: with `O=C(c1ccccc1Cl)N1CCC[C@H](c2nc(-c3ccccc3)no2)C1` the figure was 853 nM; with `Cc1ccccc1C(=O)N1CCC[C@H](c2nc(-c3ccccc3)no2)C1`, 435 nM; with `O=C(c1ccccc1)N1CCC[C@H](c2nc(-c3ccccc3)no2)C1`, 2370 nM. The same measure, in the same setting: the value for `Cc1c(Cl)cccc1C(=O)N1CCC[C@H](c2noc(-c3ccccc3)n2)C1` was 107 nM; that for `Cc1c(Cl)cccc1C(=O)N1CCC[C@H](c2nc(-c3ccccc3)no2)C1` was 27 nM.

`Cc1c(Cl)cccc1C(=O)N1CCC[C@H](n2nnc(-c3ccccc3)n2)C1`: in series [9], the IC50 turned out to be 594 nM. In the case of `Cc1c(Cl)cccc1C(=O)N1CCC[C@H](c2nnc(-c3ccccc3)[nH]2)C1`, the IC50 in series [9] was found to be 945 nM. As to `Cc1c(Cl)cccc1C(=O)N1CCC[C@H](c2nnc(-c3ccccc3)o2)C1`, the IC50 in [9] worked out at 1320 nM.
